Experimental data: article doi:10.1101/2020.10.13.337410v3, “Agonist efficiency from concentration-response curves: structural implications and applications” (biorxiv, 2021)

Target: T1, adult-type mouse AChR (α1-GFP, β, δ, ε), whole-cell (Mus musculus, UniProt P02716+P04756+P20782)
T1 construct: gene Chrna1; alpha1 with GFP encoded between M3 and M4; transient expression in HEK293, GFP-sorted cells; pentamer; no background mutations; with Acetylcholine receptor subunit beta
Experiment: automated whole-cell patch clamp (IonFlux […]), concentration-response
Type: cell-based

T1 sequence (P20782 21-493): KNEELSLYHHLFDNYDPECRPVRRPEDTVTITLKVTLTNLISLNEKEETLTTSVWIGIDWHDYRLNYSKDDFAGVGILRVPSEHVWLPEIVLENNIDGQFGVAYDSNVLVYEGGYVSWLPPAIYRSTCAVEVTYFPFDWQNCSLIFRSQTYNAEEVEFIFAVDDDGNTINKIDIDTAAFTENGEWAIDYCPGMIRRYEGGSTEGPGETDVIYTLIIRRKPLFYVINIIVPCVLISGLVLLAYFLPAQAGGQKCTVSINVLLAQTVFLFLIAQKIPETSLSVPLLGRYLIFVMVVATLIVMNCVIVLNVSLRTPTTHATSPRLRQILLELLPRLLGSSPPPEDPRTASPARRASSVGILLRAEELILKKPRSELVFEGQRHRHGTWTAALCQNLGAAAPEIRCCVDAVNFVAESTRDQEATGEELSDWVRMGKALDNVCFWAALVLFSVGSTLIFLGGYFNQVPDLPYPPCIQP
T1 sequence (P02716 25-520): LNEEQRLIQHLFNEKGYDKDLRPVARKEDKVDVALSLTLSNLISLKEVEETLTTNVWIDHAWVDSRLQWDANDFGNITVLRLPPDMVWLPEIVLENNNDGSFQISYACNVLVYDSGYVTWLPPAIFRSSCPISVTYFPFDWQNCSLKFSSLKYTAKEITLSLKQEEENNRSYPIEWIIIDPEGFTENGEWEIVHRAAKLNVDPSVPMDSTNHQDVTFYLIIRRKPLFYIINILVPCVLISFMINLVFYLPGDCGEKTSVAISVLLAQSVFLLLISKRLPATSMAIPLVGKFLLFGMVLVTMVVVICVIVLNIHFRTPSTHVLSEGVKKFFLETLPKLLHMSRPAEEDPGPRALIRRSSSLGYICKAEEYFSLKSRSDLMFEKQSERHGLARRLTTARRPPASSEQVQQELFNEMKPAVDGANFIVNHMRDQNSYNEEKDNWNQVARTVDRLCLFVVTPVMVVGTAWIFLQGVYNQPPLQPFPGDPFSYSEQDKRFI
T1 sequence (P09690 24-501, further chain): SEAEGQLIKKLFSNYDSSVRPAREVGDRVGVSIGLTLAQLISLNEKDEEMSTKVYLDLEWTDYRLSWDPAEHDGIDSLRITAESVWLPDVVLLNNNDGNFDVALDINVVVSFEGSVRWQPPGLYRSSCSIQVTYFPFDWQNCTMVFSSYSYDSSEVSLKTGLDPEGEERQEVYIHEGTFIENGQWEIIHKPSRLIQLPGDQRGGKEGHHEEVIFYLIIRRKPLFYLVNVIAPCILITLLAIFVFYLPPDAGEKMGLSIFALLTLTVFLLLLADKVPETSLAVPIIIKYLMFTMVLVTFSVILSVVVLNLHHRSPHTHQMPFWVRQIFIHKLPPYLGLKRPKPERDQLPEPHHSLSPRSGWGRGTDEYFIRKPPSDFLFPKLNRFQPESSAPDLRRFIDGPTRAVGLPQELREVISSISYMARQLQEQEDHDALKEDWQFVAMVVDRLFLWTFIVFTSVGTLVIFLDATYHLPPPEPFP
T1 sequence (P04756 21-457): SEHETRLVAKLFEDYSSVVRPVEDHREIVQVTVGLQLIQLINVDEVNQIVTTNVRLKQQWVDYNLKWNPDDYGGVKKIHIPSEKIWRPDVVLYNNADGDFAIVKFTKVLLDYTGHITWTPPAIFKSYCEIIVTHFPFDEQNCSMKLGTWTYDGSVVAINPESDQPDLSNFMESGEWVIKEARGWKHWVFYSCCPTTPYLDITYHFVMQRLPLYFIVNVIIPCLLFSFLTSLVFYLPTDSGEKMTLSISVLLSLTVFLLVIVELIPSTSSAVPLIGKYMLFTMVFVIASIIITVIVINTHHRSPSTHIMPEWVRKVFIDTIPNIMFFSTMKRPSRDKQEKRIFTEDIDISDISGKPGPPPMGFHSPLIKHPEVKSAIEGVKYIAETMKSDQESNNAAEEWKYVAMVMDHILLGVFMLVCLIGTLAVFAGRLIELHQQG

Row | SMILES | EC50 [µM]
1 | C[N+](C)(C)CCOC(N)=O [CCh] | 72.2 ± 11
2 | C[N+](C)(C)C [TMA] | 843 ± 110
